Results on 31 molecules are retold here after patent US12552772B2, “2-pyrazole anilines and related analogs for inhibiting YAP/TAZ-TEAD” (KATHOLIEKE UNIVERSITEIT LEUVEN, priority 2021, dated 2026).

Some results are limits rather than exact numbers.

Usually EC50 stands for the concentration at which the effect is half-maximal. The low end stands for greater potency, the high end for weaker potency.

The experiment concerns YAP/TAZ-TEAD transcription. The experiment is described as follows: Reporter gene assay for measuring the inhibition of YAP/TAZ-TEAD transcription (TEAD-responsive element luciferase reporter in Hek293T cells). The format is cell-based. The conditions noted are these: Homo sapiens, HEK-293T, 24 hours incubation. As to the method: Hek293T cells are cultured in DMEM supplemented with 10% fetal bovine serum, Sodium pyruvate, Sodium bicarbonate, L-glutamine. The cells are harvested and transiently transfected with TEAD-responsive element luciferase reporter. Transfected cells are plated in 384-wells plate containing pre-diluted compounds. After 24 hours incubation at 37° C./5% CO2, assay plates were cooled down to RT and levelled to an equal volume per well, prior to the addition of 25 uL luciferase substrate SteadyLite (Perkin Elmer)/well. The plate was shaken for 10 min at 600 rpm, centrifuged for 1 min at 500 rpm and measured with an Envision reader (PerkinElmer). The amount of relative light units produced by the TEAD reporter is used to calculated percent of inhibition.
The percent of reporter inhibition was calculated in the presence of a positive control inhibitor (100% inhibition) versus a condition with the presence of the vehicle basal activity of the reporter (0% inhibition). The ability of a test compound to inhibit this activity was determined as: Percentage inhibition=[1−((RLU determined in the presence of vehicle−RLU determined for sample with test compound present) divided by (RLU determined in the presence of vehicle−RLU determined for sample with positive control inhibitor))]*100
The activities of the example compounds tested are depicted in the table below. The activity ranges A, B and C refer to EC50 values in the reporter gene assay as described as follows: “A”: EC50<1 μM; “B”: 1 μM s EC50≤20 μM and “C”: EC50>20 μM, NT=not tested.
On the technique in general: In a reporter assay the amount or activity of a reporter protein is the signal.
Consider `C=CC(=O)NCc1cnc(-c2ccc(F)cc2)cc1-c1cnn(C(F)F)c1` [Cpd. No. 224, N-((4-(1-(difluoromethyl)-1H-pyrazol-4-yl)-6-(4-fluorophenyl)pyridin-3-yl)methyl)acrylamide], for which the EC50 was 1000 to 20000 nM.

`C=CC(=O)NCc1cnc(-c2ccc(F)cc2)cc1-c1cn(C(F)F)nn1` [Cpd. No. 229, N-((4-(1-(difluoromethyl)-1H-1,2,3-triazol-4-yl)-6-(4-fluorophenyl)pyridin-3-yl)methyl)acrylamide] returned an EC50 of under 1000 nM.

Molecule `C=CC(=O)NCc1c(-c2ccn(C)n2)cc(-c2ccc(F)cc2)[nH]c1=O` [Cpd. No. 233, N-((6-(4-fluorophenyl)-4-(1-methyl-1H-pyrazol-3-yl)-2-oxo-1,2-dihydropyridin-3-yl)methyl)acrylamide] gave an EC50 of over 20000 nM.

As to `C=CC(=O)NCc1[nH]c(=O)c(-c2ccc(F)cc2)cc1-c1ccn(C)n1` [Cpd. No. 234, N-((5-(4-fluorophenyl)-3-(1-methyl-1H-pyrazol-3-yl)-6-oxo-1,6-dihydropyridin-2-yl)methyl)acrylamide], the EC50 was under 1000 nM.

As to `C=CC(=O)NCc1cc(=O)n(-c2ccc(F)cc2)cc1-c1ccn(C)n1` [Cpd. No. 235, N-((1-(4-fluorophenyl)-5-(1-methyl-1H-pyrazol-3-yl)-2-oxo-1,2-dihydropyridin-4-yl)methyl)acrylamide], the EC50 is over 20000 nM.

As to `C=CC(=O)NCc1cnc(-c2ccc(F)cc2)cc1-n1cccn1` [Cpd. No. 239, N-((6-(4-fluorophenyl)-4-(1H-pyrazol-1-yl)pyridin-3-yl)methyl)acrylamide], the EC50 was under 1000 nM.

`C=CC(=O)NC1(c2ccc(-c3ccc(F)cc3)cc2-c2ccn(C)n2)CC1` [Cpd. No. 256, N-(1-(4′-fluoro-3-(1-methyl-1H-pyrazol-3-yl)-[1,1′-biphenyl]-4-yl)cyclopropyl)acrylamide] registered an EC50 of under 1000 nM.

On to `C=CC(=O)NC1CC1c1ccc(-c2ccccc2)cc1-c1ccn(C)n1` (stereo not shown) [Cpd. No. 257, N-(2-(3-(1-methyl-1H-pyrazol-3-yl)-[1,1′-biphenyl]-4-yl)cyclopropyl)acrylamide], for which the EC50 was under 1000 nM.

For the molecule `C=CC(=O)N1CCC(c2cc(-c3ccc(F)cc3)nc(-c3ccn(C(F)F)n3)c2)C1` (stereo not shown) [Cpd. No. 264, 1-(3-(2-(1-(difluoromethyl)-1H-pyrazol-3-yl)-6-(4-fluorophenyl)pyridin-4-yl)pyrrolidin-1-yl)prop-2-en-1-one], the EC50 is under 1000 nM.

The molecule `C=CC(=O)N1CCC(c2cc(-c3ccc(F)cc3)cc(-c3ccn(C(F)F)n3)n2)C1` (stereo not shown) [Cpd. No. 265, 1-(3-(6-(1-(difluoromethyl)-1H-pyrazol-3-yl)-4-(4-fluorophenyl)pyridin-2-yl)pyrrolidin-1-yl)prop-2-en-1-one] yielded an EC50 of under 1000 nM.

`O=C(O)c1cncc(-c2cccc(-c3ccn(Cc4ccccc4)n3)c2)c1` [compound 001, 5-(3-(1-benzyl-1H-pyrazol-3-yl)phenyl)nicotinic acid]: the EC50 is over 20000 nM.

In turn, `NC(=O)c1cncc(-c2cccc(-c3ccn(Cc4ccccc4)n3)c2)c1` [compound 002, 5-(3-(1-benzyl-1H-pyrazol-3-yl)phenyl)nicotinamide] had an EC50 of under 1000 nM.

The molecule `Nc1cncc(-c2cccc(-c3ccn(Cc4ccccc4)n3)c2)c1` [compound 003, 5-(3-(1-benzyl-1H-pyrazol-3-yl)phenyl)pyridin-3-amine] yielded an EC50 of 1000 to 20000 nM.

Regarding `N#Cc1cncc(-c2cccc(-c3ccn(Cc4ccccc4)n3)c2)c1` [compound 005, 5-(3-(1-benzyl-1H-pyrazol-3-yl)phenyl)nicotinonitrile], the EC50 lay within 1000 to 20000 nM.

`CCC(=O)Nc1cncc(-c2cccc(-c3ccn(Cc4ccccc4)n3)c2)c1` [compound 006, N-(5-(3-(1-benzyl-1H-pyrazol-3-yl)phenyl)pyridin-3-yl)propionamide] came in with an EC50 of 1000 to 20000 nM.

On to `CC(=O)Nc1cncc(-c2cccc(-c3ccn(Cc4ccccc4)n3)c2)c1` [compound 007, N-(5-(3-(1-benzyl-1H-pyrazol-3-yl)phenyl)pyridin-3-yl)acetamide], for which the EC50 was under 1000 nM.

The molecule `C=CC(=O)Nc1ccccc1-c1cccc(-c2ccn(Cc3ccccc3)n2)c1` [compound 008, N-(3′-(1-benzyl-1H-pyrazol-3-yl)-[1,1′-biphenyl]-2-yl)acrylamide] gave an EC50 of 1000 to 20000 nM.

For the molecule `C=CC(=O)Nc1cc(-c2cccc(-c3ccn(Cc4ccccc4)n3)c2)ccn1` [compound 009, N-(4-(3-(1-benzyl-1H-pyrazol-3-yl)phenyl)pyridin-2-yl)acrylamide], the EC50 was under 1000 nM.

Molecule `C=CC(=O)Nc1ccc(-c2cccc(-c3ccn(Cc4ccccc4)n3)c2)cn1` [compound 010, N-(5-(3-(1-benzyl-1H-pyrazol-3-yl)phenyl)pyridin-2-yl)acrylamide] yielded an EC50 of 1000 to 20000 nM.

On to `C=CC(=O)Nc1cncc(-c2cccc(-c3ccn(Cc4ccc(C(F)(F)F)cc4)n3)c2)c1` [compound 011, N-(5-(3-(1-(4-(trifluoromethyl)benzyl)-1H-pyrazol-3-yl)phenyl)pyridin-3-yl)acrylamide], for which the EC50 lay within 1000 to 20000 nM.

`C=CC(=O)Nc1cncc(-c2cccc(-c3ccn(Cc4cccc(C(F)(F)F)c4)n3)c2)c1` [compound 012, N-(5-(3-(1-(3-(trifluoromethyl)benzyl)-1H-pyrazol-3-yl)phenyl)pyridin-3-yl)acrylamide] returned an EC50 of 1000 to 20000 nM.

The molecule `C=CC(=O)Nc1cncc(-c2cccc(-c3ccn(C)n3)c2)c1` [compound 013, N-(5-(3-(1-methyl-1H-pyrazol-3-yl)phenyl)pyridin-3-yl)acrylamide] displayed an EC50 of 1000 to 20000 nM.

In turn, `c1ccc(-c2cccc(-c3ccn(Cc4cccnc4)n3)c2)cc1` [compound 014, 3-((3-([1,1′-biphenyl]-3-yl)-1H-pyrazol-1-yl)methyl)pyridine] came in with an EC50 of 1000 to 20000 nM.

In turn, `c1ccc(-c2cccc(-c3ccnn3Cc3cccnc3)c2)cc1` [compound 015, 3-((5-([1,1′-biphenyl]-3-yl)-1H-pyrazol-1-yl)methyl)pyridine] returned an EC50 of over 20000 nM.

The molecule `c1ccc(Cn2ccc(-c3cccc(-c4cncnc4)c3)n2)cc1` [compound 016, 5-(3-(1-benzyl-1H-pyrazol-3-yl)phenyl)pyrimidine] returned a concentration for a half-maximal effect (EC50) of 1000 to 20000 nM.

With `c1ccc(Cn2nccc2-c2cccc(-c3cncnc3)c2)cc1` [compound 017, 5-(3-(1-benzyl-1H-pyrazol-5-yl)phenyl)pyrimidine], the EC50 lay in the range of 1000 to 20000 nM.

As to `Fc1cccc(Cn2ccc(-c3cccc(-c4ccccc4)c3)n2)c1` [compound 018, 3-([1,1′-biphenyl]-3-yl)-1-(3-fluorobenzyl)-1H-pyrazole], the EC50 lay in the range of 1000 to 20000 nM.

Molecule `COc1cccc(Cn2ccc(-c3cccc(-c4ccccc4)c3)n2)c1` [compound 019, 3-([1,1′-biphenyl]-3-yl)-1-(3-methoxybenzyl)-1H-pyrazole] showed an EC50 of 1000 to 20000 nM.

For `N#Cc1cccc(Cn2ccc(-c3cccc(-c4ccccc4)c3)n2)c1` [compound 020, 3-((3-([1,1′-biphenyl]-3-yl)-1H-pyrazol-1-yl)methyl)benzonitrile], the EC50 fell in the range of 1000 to 20000 nM.

The molecule `c1ccc(-c2cccc(-c3ccn(Cc4ccccn4)n3)c2)cc1` [compound 021, 2-((3-([1,1′-biphenyl]-3-yl)-1H-pyrazol-1-yl)methyl)pyridine] had an EC50 of 1000 to 20000 nM.

On to `c1ccc(-c2cccc(-c3ccn(Cc4ccncc4)n3)c2)cc1` [compound 022, 4-((3-([1,1′-biphenyl]-3-yl)-1H-pyrazol-1-yl)methyl)pyridine], for which the EC50 lay within 1000 to 20000 nM.
